Test results published in PubChem BioAssay AID2060504 (Molecular Pharmacology Branch, DTP, NCI, 2025).

Test system: 636577-100-R-J1-PDC complex spheroid viability
Experiment: Anticancer human tumor 636577-100-R-J1-PDC patient-derived endometrial adenocarcinoma cell line growth inhibition [GQUAD]
Settings: for IC50: curve of first compound; for viability, T/C: stronger effect = lower value
How it was run: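 Tumor cells were grown as complex spheroids with HUVEC endothelial cells and mesenchymal stem cells as stroma. G-quadruplex stabilizers were combined with targeted agents over half-log dilutions from near the clinical Cmax, or from 10 microM.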

[1] = second compound 0.0316 µM, first compound 0.0316 µM
[2] = second compound 0.0316 µM, first compound 0.316 µM
[3] = second compound 0.1 µM, first compound 0.0316 µM
[4] = second compound 0.1 µM, first compound 0.316 µM
[5] = second compound 0.316 µM, first compound 0.0316 µM
[6] = second compound 0.316 µM, first compound 0.316 µM
[7] = second compound 1 µM, first compound 0.0316 µM
[8] = second compound 1 µM, first compound 0.316 µM
[9] = second compound 3.16 µM, first compound 0.0316 µM
[10] = second compound 3.16 µM, first compound 0.316 µM
[11] = second compound 10 µM, first compound 0.0316 µM
[12] = second compound 10 µM, first compound 0.316 µM
[13] = second compound 0.0316 µM, first compound 0.1 µM
[14] = second compound 0.0316 µM, first compound 1 µM
[15] = second compound 0.0316 µM, first compound 3.16 µM
[16] = second compound 0.0316 µM, first compound 10 µM
[17] = second compound 0.1 µM, first compound 0.1 µM
[18] = second compound 0.1 µM, first compound 1 µM
[19] = second compound 0.1 µM, first compound 3.16 µM
[20] = second compound 0.1 µM, first compound 10 µM
[21] = second compound 0.316 µM, first compound 0.1 µM
[22] = second compound 0.316 µM, first compound 1 µM
[23] = second compound 0.316 µM, first compound 3.16 µM
[24] = second compound 0.316 µM, first compound 10 µM
[25] = second compound 1 µM, first compound 0.1 µM
[26] = second compound 1 µM, first compound 1 µM
[27] = second compound 1 µM, first compound 3.16 µM
[28] = second compound 1 µM, first compound 10 µM
[29] = second compound 3.16 µM, first compound 0.1 µM
[30] = second compound 3.16 µM, first compound 1 µM
[31] = second compound 3.16 µM, first compound 3.16 µM
[32] = second compound 3.16 µM, first compound 10 µM
[33] = second compound 10 µM, first compound 0.1 µM
[34] = second compound 10 µM, first compound 1 µM
[35] = second compound 10 µM, first compound 3.16 µM
[36] = second compound 10 µM, first compound 10 µM
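Note: viability read after seven days of drug exposure.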
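Throughout, for viability, T/C: luminescence signal used as a proxy for viable cells; 100% = DMSO vehicle control wells.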

With `Cn1ncnc1[C@H]1c2n[nH]c(=O)c3cc(F)cc(c23)N[C@@H]1c1ccc(F)cc1` + Cc1cnc(CNC(=O)c2c(=O)c3ccc(N4CCCN(C)CC4)nc3n3c2sc2ccccc23)cn1 the IC50 (second compound 0.0316 µM) was < 0.999 nM, the IC50 (second compound 0.1 µM) was < 0.999 nM and the IC50 (second compound 0.316 µM) was < 0.999 nM. For the same compound, the IC50 (second compound 1 µM) was < 0.999 nM, the IC50 (second compound 3.16 µM) was < 0.999 nM and the IC50 (second compound 10 µM) was < 0.999 nM. The viability, T/C (second compound 0.0316 µM, first compound 0.000999 µM) was 47.9%, the viability, T/C (second compound 0.0316 µM, first compound 0.00316 µM) was 25.6% and the viability, T/C (second compound 0.0316 µM, first compound 0.00999 µM) was 39.7%. For the same compound, the viability, T/C [1] was 24%, the viability, T/C (second compound 0.0316 µM, first compound 0.0999 µM) was 24.7% and the viability, T/C [2] was 24.9%. For the same compound, the viability, T/C (second compound 0.1 µM, first compound 0.000999 µM) was 26.9%, the viability, T/C (second compound 0.1 µM, first compound 0.00316 µM) was 26.9% and the viability, T/C (second compound 0.1 µM, first compound 0.00999 µM) was 26.6%. The viability, T/C [3] was 20.6%, the viability, T/C (second compound 0.1 µM, first compound 0.0999 µM) was 24.1% and the viability, T/C [4] was 19.9%. For the same compound, the viability, T/C (second compound 0.316 µM, first compound 0.000999 µM) was 21%, the viability, T/C (second compound 0.316 µM, first compound 0.00316 µM) was 23.2% and the viability, T/C (second compound 0.316 µM, first compound 0.00999 µM) was 21.1%. The viability, T/C [5] was 22.9%, the viability, T/C (second compound 0.316 µM, first compound 0.0999 µM) was 21.8% and the viability, T/C [6] was 19.2%. The viability, T/C (second compound 1 µM, first compound 0.000999 µM) was 20.1%, the viability, T/C (second compound 1 µM, first compound 0.00316 µM) was 19% and the viability, T/C (second compound 1 µM, first compound 0.00999 µM) was 19.8%. For the same compound, the viability, T/C [7] was 21%, the viability, T/C (second compound 1 µM, first compound 0.0999 µM) was 19.4% and the viability, T/C [8] was 20.4%. It also gave a viability, T/C (second compound 3.16 µM, first compound 0.000999 µM) of 19%, a viability, T/C (second compound 3.16 µM, first compound 0.00316 µM) of 18.6% and a viability, T/C (second compound 3.16 µM, first compound 0.00999 µM) of 21.6%. For the same compound, the viability, T/C [9] was 19.7%, the viability, T/C (second compound 3.16 µM, first compound 0.0999 µM) was 21.7% and the viability, T/C [10] was 19.2%. For the same compound, the viability, T/C (second compound 10 µM, first compound 0.000999 µM) was 15.2%, the viability, T/C (second compound 10 µM, first compound 0.00316 µM) was 18.5% and the viability, T/C (second compound 10 µM, first compound 0.00999 µM) was 21.9%. The viability, T/C [11] was 19.4%, the viability, T/C (second compound 10 µM, first compound 0.0999 µM) was 21.9% and the viability, T/C [12] was 19.2%.

`CC(=O)O[C@H]1C(=O)[C@@]2(C)[C@H]([C@H](OC(=O)c3ccccc3)[C@]3(O)C[C@H](OC(=O)[C@H](O)[C@@H](NC(=O)c4ccccc4)c4ccccc4)C(C)=C1C3(C)C)[C@]1(OC(C)=O)CO[C@@H]1C[C@@H]2O` + CN(C)c1ccc(Nc2c3ccc(NC(=O)CCN4CCCC4)cc3nc3cc(NC(=O)CCN4CCCC4)ccc23)cc1 was tested, and the IC50 (second compound 0.0316 µM) was < 31.6 nM, the IC50 (second compound 0.1 µM) was < 31.6 nM and the IC50 (second compound 0.316 µM) was < 31.6 nM. For the same compound, the IC50 (second compound 1 µM) was < 31.6 nM, the IC50 (second compound 3.16 µM) was < 31.6 nM and the IC50 (second compound 10 µM) was < 31.6 nM. It also gave a viability, T/C [1] of 20.1%, a viability, T/C [13] of 12.8% and a viability, T/C [2] of 13.3%. For the same compound, the viability, T/C [14] was 11.8%, the viability, T/C [15] was 11.5% and the viability, T/C [16] was 10.8%. It also gave a viability, T/C [3] of 18.8%, a viability, T/C [17] of 13.5% and a viability, T/C [4] of 11.4%. For the same compound, the viability, T/C [18] was 8.93%, the viability, T/C [19] was 9.82% and the viability, T/C [20] was 8.97%. It also gave a viability, T/C [5] of 15.9%, a viability, T/C [21] of 12.3% and a viability, T/C [6] of 10.4%. For the same compound, the viability, T/C [22] was 12.6%, the viability, T/C [23] was 9.5% and the viability, T/C [24] was 10.1%. It also gave a viability, T/C [7] of 15.9%, a viability, T/C [25] of 12.8% and a viability, T/C [8] of 12.5%. It also gave a viability, T/C [26] of 11.6%, a viability, T/C [27] of 10% and a viability, T/C [28] of 10.4%. The viability, T/C [9] was 16.2%, the viability, T/C [29] was 12.7% and the viability, T/C [10] was 13.4%. For the same compound, the viability, T/C [30] was 11.6%, the viability, T/C [31] was 11.8% and the viability, T/C [32] was 11.2%. For the same compound, the viability, T/C [11] was 4.59%, the viability, T/C [33] was 3.8% and the viability, T/C [12] was 2.57%. For the same compound, the viability, T/C [34] was 3.21%, the viability, T/C [35] was 3.16% and the viability, T/C [36] was 2.15%.

In the case of `CCCS(=O)(=O)Nc1ccc(F)c(C(=O)c2c[nH]c3ncc(-c4ccc(Cl)cc4)cc23)c1F` + Cc1cnc(CNC(=O)c2c(=O)c3ccc(N4CCCN(C)CC4)nc3n3c2sc2ccccc23)cn1, the IC50 (second compound 0.0316 µM) is reported as < 31.6 nM, the IC50 (second compound 0.1 µM) is reported as < 31.6 nM and the IC50 (second compound 0.316 µM) is reported as < 31.6 nM. For the same compound, the IC50 (second compound 1 µM) was < 31.6 nM, the IC50 (second compound 3.16 µM) was < 31.6 nM and the IC50 (second compound 10 µM) was < 31.6 nM. The viability, T/C [1] was 41.1%, the viability, T/C [13] was 40.1% and the viability, T/C [2] was 61.3%. It also gave a viability, T/C [14] of 33.9%, a viability, T/C [15] of 44.3% and a viability, T/C [16] of 24.2%. The viability, T/C [3] was 32%, the viability, T/C [17] was 31% and the viability, T/C [4] was 33.2%. It also gave a viability, T/C [18] of 31%, a viability, T/C [19] of 29.8% and a viability, T/C [20] of 21.4%. The viability, T/C [5] was 24.1%, the viability, T/C [21] was 25.8% and the viability, T/C [6] was 29.9%. For the same compound, the viability, T/C [22] was 27.4%, the viability, T/C [23] was 26.9% and the viability, T/C [24] was 15.7%. It also gave a viability, T/C [7] of 17.6%, a viability, T/C [25] of 24.2% and a viability, T/C [8] of 27.4%. The viability, T/C [26] was 26.8%, the viability, T/C [27] was 24.9% and the viability, T/C [28] was 14.7%. The viability, T/C [9] was 17.5%, the viability, T/C [29] was 21.9% and the viability, T/C [10] was 22%. The viability, T/C [30] was 25.1%, the viability, T/C [31] was 22.7% and the viability, T/C [32] was 15.4%. For the same compound, the viability, T/C [11] was 20.2%, the viability, T/C [33] was 22.1% and the viability, T/C [12] was 18.5%. The viability, T/C [34] was 21.1%, the viability, T/C [35] was 21.7% and the viability, T/C [36] was 6.34%.
